Where two headings read alike, the source gives them in different places.
Experiments:
[1] = Pharmacokinetic behavior in mice (plasma concentration by LC-MS/MS); format: in vivo; details: male ICR mice
Procedure: (§1) Three healthy ICR mice (SPF grade, from Beijing Vital River Laboratory Animal Technology Co., Ltd.), male, weighing 18-25 g, were intravenously injected with a compound (1 mg/kg) at a volume of 5 mL/kg. The compound was prepared using 5% DMSO+10% Solutol+85% Saline (w/v), and the animals were not fasted before the experiment.
as §1, with “were intragastrically administered” for “were intravenously injected with”, “compound (5” for “compound (1”, “of 10” for “of 5”
Blood samples (about 0.05 mL each) were collected from the cheeks at 5 min, 15 min, 30 min, 1 h, 2 h, 4 h, 6 h, 8 h, and 24 h after intravenous administration, and at 5 min, 15 min, 30 min, 1 h, 2 h, 4 h, 6 h, 8 h, and 24 h after intragastrical administration, and anticoagulated with heparin sodium. Following collection, the blood samples were placed on ice and the plasma was centrifuged within 1 h (centrifugation conditions: 6,000 g, 3 min, 2 °C to 8°C). The concentration of the compounds in the plasma was determined by liquid chromatography tandem mass spectrometry. The plasma samples were stored in a -80°C freezer before analysis. With plasma concentration data at different time points, pharmacokinetic parameters were calculated by Phoenix WinNonlin8.2.0, and the results are shown in Table 4: Table 4

[2] = molecular target: T1, IRAK4-HiBiT fusion protein (Homo sapiens, UniProt Q9NWZ3); test: Detection of HiBiT-IRAK4 proteolysis levels in K562 IRAK4-HiBiT cells (Nano-Glo HiBiT Lytic assay); format: cell-based; details: 6 h incubation
T1 construct: K562 from ATCC
T1 sequence (Q9NWZ3 1-460): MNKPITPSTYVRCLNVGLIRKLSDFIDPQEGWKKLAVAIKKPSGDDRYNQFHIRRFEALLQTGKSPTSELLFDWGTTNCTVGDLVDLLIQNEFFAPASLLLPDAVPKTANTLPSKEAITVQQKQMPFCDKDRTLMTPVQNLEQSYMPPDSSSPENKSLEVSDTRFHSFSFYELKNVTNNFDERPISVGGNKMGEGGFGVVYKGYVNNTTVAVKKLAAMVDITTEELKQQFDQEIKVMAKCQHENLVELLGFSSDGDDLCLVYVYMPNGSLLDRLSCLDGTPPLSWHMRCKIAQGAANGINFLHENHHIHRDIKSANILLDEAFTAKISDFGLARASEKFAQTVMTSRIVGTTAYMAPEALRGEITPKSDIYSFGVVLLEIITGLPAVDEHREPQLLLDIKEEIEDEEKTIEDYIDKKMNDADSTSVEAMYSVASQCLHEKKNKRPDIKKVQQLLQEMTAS
Procedure: Test Example 1 Detection of HiBiT-IRAK4 proteolysis levels in K562 IRAK4-HiBiT cells co-incubated with compounds of the present application • Reagents, devices, and consumables in experiments: • Nano-Glo Lytic Detection Assay, purchased from Promega; • EnVision, purchased from PerkinElmer; • Name of cell line: K562 IRAK4-HiBiT stable transformation cell strain (capable of stably expressing IRAK4-HiBiT fusion protein), constructed by Shanghai Bioduro Biologics Co., Ltd., where a K562 cell strain was purchased from ATCC. The culture medium is IMDM+10% FBS+1% P/S (volume percentage, where FBS is fetal bovine serum and P/S is Penicillin-Streptomycin, a 1:1 mixture of penicillin and streptomycin antibiotic solution (10,000 units/mL)).
Cell culture: K562 IRAK4-HiBiT cells were incubated at 37°C, and passaged every 2-3 d, with a seeding density of 200,000 cells/mL.
IRAK4-HiBiT proteolysis experiment: • Step 1: Cell seeding and treatment of compound • 1. A 10 mM compound mother liquor was prepared using DMSO, and a compound solution with a working concentration of 1,000 times (the highest working concentration is 10 µM, diluted 3.162 times, with a total of 10 concentration gradients) was prepared using Bravo automatic liquid processing platform. • 2. 40 nL of a compound working solution was transferred to a 384 well plate, and an equal volume of DMSO was added to positive control wells. • 3. 20 µL of a culture solution was added per well and shaken for 10 min. • 4.20 µL of a K562 IRAK4-HiBiT cell suspension was added per well (6,000 cells/well), and an equal volume of culture medium was added to negative control wells. • 5. The well plate was rotated at 1,000 rpm for 1 min. • 6. The cells were incubated in a 5% CO2 incubator at 37°C for 2 h or 6 h. • Step 2: HiBiT Lytic experiment • 1. The well plate was placed at room temperature to equilibrate for 30 min. • 2. 20 µL of Nano-Glo HiBiT Lytic reagent (trade name: Nano-Glo® HiBiT Lytic Detection Reagent) and the well plate was kept in the dark. • 3. The well plate was placed on an orbital shaker at 300 rpm for 5 min. • 4. The cells were incubated at room temperature for 10 min. • 5. The luminous value was read by Envision. • 6. Data was calculated and processed. Degradation degree%=(negative control - experimental well)/(negative control - positive control) * 100%. Using XL-fit software, a degradation curve was obtained by fitting using a 4 Parameter Logistic Model, and the values of Relative DC50 (nM) and Absolute DC50 (nM) were obtained.

[3] = test system: LPS induced IL-6 release in human PBMC cells; test: Inhibition of LPS induced IL-6 release in human PBMC cells (IL-6 HTRF assay); format: cell-based; details: 2 h compound pre-incubation, LPS 5 ng/mL for 4 h, IL-6 in supernatant
Procedure: I. Recovery and seeding of PBMC, and treatment of compounds (human PBMC cells were purchased from Oricell, item number: Fpb003F)
• 1. Preparation of compounds Sample dilutions of a series of concentrations were obtained by dilution in DMSO using Bravo, and then 80 nL was transferred into a cell plate using ECHO. The final concentration of DMSO in the cell culture medium is 0.1%. • 2. Frozen cells were quickly thawed in a 37°C water bath and stirred continuously. • 3. 25 mL of fresh preheated culture medium was added into a 50 mL centrifuge tube, and then the cells were added dropwise. Then the cells were centrifuged at 2,000 rpm for 10 min. • 4. […] The total number of cells required was calculated based on cell concentration to perform the assay. 7×10e4 cells were added per well (70 µL). • 6. The cell plate was placed and incubated in a 5% CO2 incubator at 37°C for 2 h.
• 1. LPS: A stock solution (1 mg/mL) was diluted in dH2O, aliquoted, and stored at -80°C. • 2. 8-fold LPS was added per well (10 µl/well) (with a final concentration of 5 ng/mL). The cells were incubated in a 5% CO2 incubator at 37°C for 4 h. • 3. 70 µl of supernatant was collected per well using Bravo, and then IL-6 HTRF assay was performed. The supernatant may be stored at -80°C.
1. Preparation of standards and sample dilutions. 2. 16 µL of each sample was taken using Bravo and added to wells. Then 16 µL of each standard was taken and added to corresponding wells. 3.4 µL of a premixed IL6 antibody working solution was added to each of all wells. 4. The cell plate was sealed and incubated at room temperature for 2 h. 5.

[4] = Intragastric administration (5 mg/kg)
[5] = Intravenous injection (1 mg/kg)

## COc1cc2nn([C@H]3CC[C@H](CCN4CCC5(CC4)OCc4cc(C6CCC(=O)NC6=O)ccc45)CC3)cc2cc1NC(=O)c1cccc(C(F)(F)F)n1 (stereo partly drawn) [Compound 46]
[1]; [4]
  AUClast: 3815 ng·h/mL
  Cmax: 207 ng/mL
  F%: 68.7%
  T1/2: 27.3 h
[1]; [5]
  AUClast: 932 ng·h/mL
  CL: 6.80 mL/min/kg
  Cmax: 128 ng/mL
  Vss: 21.4 L/kg
[2]
  Dmax: 93.6%
[2]; read-out: Absolute DC50
  DC50: 0.92 nM
[2]; read-out: Relative DC50
  DC50: 0.79 nM
[3]
  IC50: 13.7 nM

From EP4696691A1, “TRICYCLIC COMPOUND, AND PREPARATION METHOD THEREFOR AND USE THEREOF” (Shanghai Huilun Pharmaceutical Co., Ltd., priority 2023, dated 2024)
